Experimental data from patent US20030104507A1, “Method for detection of ATP” (priority 2001, published 2003).

What was measured:
LucPpy = molecular target: T1, LucPpy (Photinus pyralis, UniProt P08659); assay: Stability of reagent composition with LucPpy and detergent (RT, pH 7.0); format: biochemical; conditions: LucPpy
T1 construct: purchased Promega E170A
Outline: (§1)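 Reagent with 50 μg/ml luciferase, luciferin, MgSO4, buffer and detergent at varying concentrations held at about 23° C; enzyme added just before first read. At timepoints, aliquots mixed 1:1 with media containing ATP and luminescence read immediately (0.5 s/well, triplicate); reaction half-lives and percent of original luminescence derived.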

[1] = molecular target: native firefly luciferase (Photinus pyralis, UniProt P08659); conditions: cited from earlier work
Chain of native firefly luciferase (P08659 whole entry): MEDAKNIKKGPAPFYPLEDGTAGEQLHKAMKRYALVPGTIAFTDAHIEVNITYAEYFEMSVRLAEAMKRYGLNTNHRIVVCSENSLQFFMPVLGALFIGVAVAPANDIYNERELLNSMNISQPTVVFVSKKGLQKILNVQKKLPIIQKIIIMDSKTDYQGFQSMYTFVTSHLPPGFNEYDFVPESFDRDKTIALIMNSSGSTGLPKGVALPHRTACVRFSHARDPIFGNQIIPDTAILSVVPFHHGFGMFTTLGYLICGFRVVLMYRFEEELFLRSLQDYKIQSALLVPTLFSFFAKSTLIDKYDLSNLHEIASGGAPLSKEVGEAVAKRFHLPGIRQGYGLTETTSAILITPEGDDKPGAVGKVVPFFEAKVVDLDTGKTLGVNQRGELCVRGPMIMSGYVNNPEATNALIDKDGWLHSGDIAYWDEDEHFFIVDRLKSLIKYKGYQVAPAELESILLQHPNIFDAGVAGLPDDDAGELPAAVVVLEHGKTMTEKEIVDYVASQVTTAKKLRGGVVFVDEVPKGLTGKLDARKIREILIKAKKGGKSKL

LucPpe2m146 = assay: Stability of reagent composition with LucPpe2m146 and detergent (RT, pH 7.0); format: biochemical, Photuris pennsylvanica
Outline: as §1

Compound: CCCCCCCCCCCCCCCC[N+](C)(C)C.[Br-] [CTAB, Cetyltrimethylammonium bromide]
- Average Relative Light Units (LucPpy; 0.02%, 0.75 min (head r25)): 1869.80 rlu
- Percent of Luminescence Remaining (LucPpy; 0.02%, 0.75 min (times of Table I r25)): 100.00%
- Average Relative Light Units (LucPpy; 0.02%, 6 min (head r25)): 79.719 rlu
- Percent of Luminescence Remaining (LucPpy; 0.02%, 6 min (times of Table I r25)): 0.09%
- Percent of Luminescence Remaining (LucPpy; 0.02%, 16 min (times of Table I r25, r31)): 0.03%
- Average Relative Light Units (LucPpy; 0.02%, (16 min) (head r25)): 0.099 rlu
- Average Relative Light Units (LucPpy; 0.05%, 0.75 min (head r25)): 1134.53 rlu
- Percent of Luminescence Remaining (LucPpy; 0.05%, 0.75 min (times of Table I r25)): 100.00%
- Average Relative Light Units (LucPpy; 0.05%, 6 min (head r25)): 0.563 rlu
- Percent of Luminescence Remaining (LucPpy; 0.05%, 6 min (times of Table I r25)): 0.05%
- Average Relative Light Units (LucPpy; 0.05%, 20 min (head r25)): 0.015 rlu
- Percent of Luminescence Remaining (LucPpy; 0.05%, 20 min (times of Table I r25)): 0.00%
- Average Relative Light Units (LucPpy; 0.1%, 0.75 min (head r25)): 94.603 rlu
- Percent of Luminescence Remaining (LucPpy; 0.1%, 0.75 min (times of Table I r25)): 100.00%
- Average Relative Light Units (LucPpy; 0.1%, 6 min (head r25)): 0.020 rlu
- Percent of Luminescence Remaining (LucPpy; 0.1%, 6 min (times of Table I r25)): 0.02%
- effect on native firefly luciferase [1]: inactivated
- Average Relative Light Units (LucPpe2m146; LucPpe2m146, 0.02%, 1.0 min (head r61)): 11019.8 rlu
- Percent of Luminescence Remaining (LucPpe2m146; LucPpe2m146, 0.02%, 1.0 min (times of Table I r61)): 100.00%
- Average Relative Light Units (LucPpe2m146; LucPpe2m146, 0.02%, 37 min (head r61)): 2051.7 rlu
- Percent of Luminescence Remaining (LucPpe2m146; LucPpe2m146, 0.02%, 37 min (times of Table I r61)): 18.62%
- Average Relative Light Units (LucPpe2m146; LucPpe2m146, 0.02%, 67 min (head r61)): 1087.4 rlu
- Percent of Luminescence Remaining (LucPpe2m146; LucPpe2m146, 0.02%, 67 min (times of Table I r61)): 9.87%
- Average Relative Light Units (LucPpe2m146; LucPpe2m146, 0.02%, 116 min (head r61)): 6117.8 rlu
- Percent of Luminescence Remaining (LucPpe2m146; LucPpe2m146, 0.02%, 116 min (times of Table I r61)): 55.52%
- Average Relative Light Units (LucPpe2m146; LucPpe2m146, 0.02%, 177 min (head r61)): 16020.8 rlu
- Percent of Luminescence Remaining (LucPpe2m146; LucPpe2m146, 0.02%, 177 min (times of Table I r61)): 145.38%
- Average Relative Light Units (LucPpe2m146; LucPpe2m146, 0.02%, 243 min (head r61)): 16368.5 rlu
- Percent of Luminescence Remaining (LucPpe2m146; LucPpe2m146, 0.02%, 243 min (times of Table I r61)): 148.54%
- Average Relative Light Units (LucPpe2m146; LucPpe2m146, 0.05%, 1.0 min (head r61)): 11992.5 rlu
- Percent of Luminescence Remaining (LucPpe2m146; LucPpe2m146, 0.05%, 1.0 min (times of Table I r61)): 100.00%
- Average Relative Light Units (LucPpe2m146; LucPpe2m146, 0.05%, 37 min (head r61)): 301.5 rlu
- Percent of Luminescence Remaining (LucPpe2m146; LucPpe2m146, 0.05%, 37 min (times of Table I r61)): 2.51%
- Average Relative Light Units (LucPpe2m146; LucPpe2m146, 0.05%, 67 min (head r61)): 131.7 rlu
- Percent of Luminescence Remaining (LucPpe2m146; LucPpe2m146, 0.05%, 67 min (times of Table I r61)): 1.10%
- Average Relative Light Units (LucPpe2m146; LucPpe2m146, 0.05%, 116 min (head r61)): 4219.7 rlu
- Percent of Luminescence Remaining (LucPpe2m146; LucPpe2m146, 0.05%, 116 min (times of Table I r61)): 35.19%
- Average Relative Light Units (LucPpe2m146; LucPpe2m146, 0.05%, 177 min (head r61)): 16910.8 rlu
- Percent of Luminescence Remaining (LucPpe2m146; LucPpe2m146, 0.05%, 177 min (times of Table I r61)): 141.01%
- Average Relative Light Units (LucPpe2m146; LucPpe2m146, 0.05%, 243 min (head r61)): 17340.0 rlu
- Percent of Luminescence Remaining (LucPpe2m146; LucPpe2m146, 0.05%, 243 min (times of Table I r61)): 144.5%
- Average Relative Light Units (LucPpe2m146; LucPpe2m146, 0.1%, 1.0 min (head r61)): 1047.8 rlu
- Percent of Luminescence Remaining (LucPpe2m146; LucPpe2m146, 0.1%, 1.0 min (times of Table I r61)): 100.00%
- Average Relative Light Units (LucPpe2m146; LucPpe2m146, 0.1%, 37 min (head r61)): 5.3 rlu
- Percent of Luminescence Remaining (LucPpe2m146; LucPpe2m146, 0.1%, 37 min (times of Table I r61)): 0.51%
- Average Relative Light Units (LucPpe2m146; LucPpe2m146, 0.1%, 67 min (head r61)): 5.2 rlu
- Percent of Luminescence Remaining (LucPpe2m146; LucPpe2m146, 0.1%, 67 min (times of Table I r61)): 0.50%
- Average Relative Light Units (LucPpe2m146; LucPpe2m146, 0.1%, 116 min (head r61)): 6.2 rlu
- Percent of Luminescence Remaining (LucPpe2m146; LucPpe2m146, 0.1%, 116 min (times of Table I r61)): 0.59%
- Average Relative Light Units (LucPpe2m146; LucPpe2m146, 0.1%, 177 min (head r61)): 6.0 rlu
- Percent of Luminescence Remaining (LucPpe2m146; LucPpe2m146, 0.1%, 177 min (times of Table I r61)): 0.58%
- Average Relative Light Units (LucPpe2m146; LucPpe2m146, 0.1%, 243 min (head r61)): 5.7 rlu
- Percent of Luminescence Remaining (LucPpe2m146; LucPpe2m146, 0.1%, 243 min (times of Table I r61)): 0.55%
